In ChEMBL document CHEMBL1697781, “Assessment of the health effects of chemicals in humans: II. Construction of an adverse effects database for QSAR modeling” (Curr Drug Discov Technol, 2004):

Assays:
Details in all cases: human; call rule not given here
Hepatotoxicity [1] = assay: FDA HLAED, liver enzyme composite activity
Hepatotoxicity [2] = assay: FDA HLAED, gamma-glutamyl transferase (GGT) increase
Hepatotoxicity [3] = assay: FDA HLAED, serum glutamic oxaloacetic transaminase (SGOT) increase
Hepatotoxicity [4] = assay: FDA HLAED, alkaline phosphatase increase
Hepatotoxicity [5] = assay: FDA HLAED, serum glutamic pyruvic transaminase (SGPT) increase
Hepatotoxicity [6] = assay: FDA HLAED, lactate dehydrogenase (LDH) increase
Wherever GGT Increase - Index Value is given: reference of the scale not given here.
Wherever LDH Increase - Index Value is given: reference of the scale not given here.

| SMILES | Composite Activity - Active (Hepatotoxicity [1]) | Composite Activity - Marginal (Hepatotoxicity [1]) | Composite Activity - Score (Hepatotoxicity [1]) | GGT Increase - Activity Score (Hepatotoxicity [2]) | GGT Increase - Index Value (Hepatotoxicity [2]) | GGT Increase - Number of Reports (Hepatotoxicity [2]) | SGOT Increase - Activity Score (Hepatotoxicity [3]) | SGOT Increase - Index Value (Hepatotoxicity [3]) | SGOT Increase - Number of Reports (Hepatotoxicity [3]) | Alkaline Phosphatase Increase - Activity Score (Hepatotoxicity [4]) | Alkaline Phosphatase Increase - Index Value (Hepatotoxicity [4]) | Alkaline Phosphatase Increase - Number of Reports (Hepatotoxicity [4]) | SGPT Increase - Activity Score (Hepatotoxicity [5]) | SGPT Increase - Index Value (Hepatotoxicity [5]) | SGPT Increase - Number of Reports (Hepatotoxicity [5]) | LDH Increase - Activity Score (Hepatotoxicity [6]) | LDH Increase - Index Value (Hepatotoxicity [6]) | LDH Increase - Number of Reports (Hepatotoxicity [6]) | other results |
| --- | --- | --- | --- | --- | --- | --- | --- | --- | --- | --- | --- | --- | --- | --- | --- | --- | --- | --- | --- |
| CCC(=O)[C@@]1(C)[C@H](C)C[C@H]2[C@@H]3CCC4=CC(=O)C=C[C@]4(C)[C@H]3[C@@H](O)C[C@@]21C [RIMEXOLONE] | 0 | 0 | Inactive | Inactive | 0 | < 4 | Inactive | 0 | < 4 | Inactive | 0 | < 4 | Inactive | 0 | < 4 | Inactive | 0 | < 4 | – |
| Cc1nc2n(c(=O)c1CCN1CCC(c3noc4cc(F)ccc34)CC1)CCCC2 [RISPERIDONE] | 2 | 0 | Active | Inactive | 1.6 | >= 4 | Active | 4.8 | >= 4 | Inactive | 1.6 | >= 4 | Active | 4.9 | >= 4 | Inactive | 0.9 | >= 4 | – |
| CC(NCCc1ccc(O)cc1)C(O)c1ccc(O)cc1 (stereo unspecified) [RITODRINE] | 2 | 0 | Active | Inactive | 0 | < 4 | Active | 4.2 | >= 4 | Inactive | 1.1 | < 4 | Active | 4.2 | >= 4 | Inactive | 0 | < 4 | – |
| C=CC[N+]1([C@H]2C[C@H]3[C@@H]4CC[C@H]5C[C@H](O)[C@@H](N6CCOCC6)C[C@]5(C)[C@H]4CC[C@]3(C)[C@H]2OC(C)=O)CCCC1.[Br-] [ROCURONIUM BROMIDE] | 0 | 0 | Inactive | Inactive | 0 | < 4 | Inactive | 0 | < 4 | Inactive | 0 | < 4 | Inactive | 0 | < 4 | Inactive | 0 | < 4 | – |
| CCCN1CCCC[C@H]1C(=O)Nc1c(C)cccc1C [ROPIVACAINE] | 0 | 0 | Inactive | Inactive | 0 | < 4 | Inactive | 0 | < 4 | Inactive | 0 | < 4 | Inactive | 0 | < 4 | Inactive | 0 | < 4 | – |
| OCc1cc(C(O)CNCCCCCCOCCCCc2ccccc2)ccc1O (stereo unspecified) [SALMETEROL] | 0 | 0 | Inactive | Inactive | 0.1 | < 4 | Inactive | 0.1 | < 4 | Inactive | 0 | < 4 | Inactive | 0.1 | < 4 | Inactive | 0 | < 4 | – |
| C#CCN(C)[C@H](C)Cc1ccccc1 [SELEGILINE] | 0 | 0 | Inactive | Inactive | 1.8 | >= 4 | Inactive | 0.4 | < 4 | Inactive | 2.2 | >= 4 | Inactive | 1.5 | >= 4 | Inactive | 0 | < 4 | – |
| CN[C@H]1CC[C@@H](c2ccc(Cl)c(Cl)c2)c2ccccc21 [SERTRALINE] | – | – | – | Inactive | 2 | >= 4 | Inactive | 2.7 | >= 4 | Inactive | 2 | >= 4 | Inactive | 2.1 | >= 4 | Inactive | 0.9 | >= 4 | Composite Activity - Active (Hepatotoxicity [1]; Liver): 0; Composite Activity - Marginal (Hepatotoxicity [1]; Liver): 0; Composite Activity - Score (Hepatotoxicity [1]; Liver): Inactive |
| FCOC(C(F)(F)F)C(F)(F)F [SEVOFLURANE] | 0 | 0 | Inactive | Inactive | 0 | < 4 | Inactive | 4.6 | < 4 | Inactive | 3.1 | < 4 | Inactive | 0 | < 4 | Inactive | 1.6 | < 4 | – |
| CC(C)NCC(O)c1ccc(NS(C)(=O)=O)cc1 (stereo unspecified) [SOTALOL] | 0 | 0 | Inactive | Inactive | 1 | < 4 | Inactive | 3 | < 4 | Inactive | 1 | < 4 | Inactive | 0 | < 4 | Inactive | 1 | < 4 | – |
| C[C@@H]1CN(c2c(F)c(N)c3c(=O)c(C(=O)O)cn(C4CC4)c3c2F)C[C@H](C)N1 [SPARFLOXACIN] | 0 | 0 | Inactive | Inactive | 0 | < 4 | Inactive | 0 | < 4 | Inactive | 0 | < 4 | Inactive | 0 | < 4 | Inactive | 0 | < 4 | – |
| Cc1cn([C@H]2C=C[C@@H](CO)O2)c(=O)[nH]c1=O [STAVUDINE] | 2 | 1 | Active | Marginally Active | 3.6 | >= 4 | Active | 9.1 | >= 4 | Inactive | 2.4 | >= 4 | Active | 9.7 | >= 4 | Inactive | 1.8 | < 4 | – |
